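Test compounds were applied to cells in 96-well plates for 48 hours at 5 doses. Definition used: TGI = concentration required for complete inhibition of growth.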

The test system of the first test is SN12K1 renal. Nature of the test: NCI-60 cell line screen, 48 h.
Turning to `CCCC(=O)OCC1OC(n2ccc(N)nc2=O)C(OC(=O)CCC)C1OC(=O)CCC` (configuration not stated), the TGI is greater than 100 µM.
Still for that read-out and setting: the result for `COc1ccc(/C=C2\CCNC2=O)cc1` reads greater than 100 µM; that for `O=c1cc[nH]c(=O)[nH]1`, 994 µM.

Another test deals with LXFL 529 NSCLC. Briefly: NCI-60 cell line screen, 48 h.
In turn, `CC(=O)OC1/C=C(\C)C(OC(C)=O)C/C=C(/C)CCC2C(/C=C/C1=O)C2(C)C` (configuration not stated) had a TGI greater than 100 µM.
`O=C1c2cccc3c2C(=O)c2c(cccc21)OCCOCCOCCOCCO3`: the TGI is greater than 100 µM.
Take `COc1cc2c(cc1OC)C(CC1=C(c3ccccc3)CN3CCc4cc(OC)c(OC)cc4C3C1)NCC2` (configuration not stated): the TGI worked out at 31.1 µM.
The molecule `C=CCc1c(O)c2c(c3oc(=O)cc(C)c13)CC(C)O2` (configuration not stated) yielded a TGI greater than 100 µM.

Values taken from PubChem BioAssay (NCI).
